Paper PMC4332848 (Clinical cancer research : an official journal of the …, 2013)
Values joined by “and” are separate entries in the source; they are usually repeats but may differ in a detail not shown here. Equal values may be shown once. Read-outs that look alike come from different tables or passages of the source.

Experiments:
AML / acute leukemias = details: cited from earlier work
[1] = Serum vorinostat pharmacokinetics; type: in vivo, human; details: for AUC(0-t): AUC0-8 h; for AUC(0-inf): AUC0-inf
buccal mucosal cells = assay: Cell-cycle phase distribution, pre vs on vorinostat; type: in vivo, human
leukemic blasts = assay: as above; type: in vivo, human; details: Mean
Buccal mucosa cells = assay: TRAIL death receptor protein expression, pre vs on vorinostat; type: in vivo, human
Leukemia blast cells = assay: TRAIL death and decoy receptor protein expression, pre vs on vorinostat; type: in vivo, human
HL-60/W [2] = assay: Control studies for DR or DcR expression; type: cell-based, human
BCRP [3] = assay: BCRP transcripts in patient leukemic blasts; type: in vivo, human; details: paired t test, 8 paired samples
BCRP [4] = assay: Functional expression of BCRP in patient blasts; type: in vivo, human; details: paired t test, 6 paired samples
[5] = tested on: patients with poor-risk or advanced acute leukemias
Pgp (ABCB1) = details: individual patients' blasts on vorinostat; D < 0.15 = no overexpression
Pgp = Pgp (Homo sapiens, UniProt P08183); details: paired t test, 6 paired samples
HL-60/W [6] = details: HL-60 cells, 24-hour exposure to 1 μmol/L vorinostat; cited from earlier work
[7] = tested on: human leukemia cell lines; details: cited from earlier work
BCRP (ABCG2) = assay: BCRP protein in patient leukemic blasts
[8] = human, serum, oral, 200 mg, Median, N 21

Chain of Pgp (P08183 whole entry): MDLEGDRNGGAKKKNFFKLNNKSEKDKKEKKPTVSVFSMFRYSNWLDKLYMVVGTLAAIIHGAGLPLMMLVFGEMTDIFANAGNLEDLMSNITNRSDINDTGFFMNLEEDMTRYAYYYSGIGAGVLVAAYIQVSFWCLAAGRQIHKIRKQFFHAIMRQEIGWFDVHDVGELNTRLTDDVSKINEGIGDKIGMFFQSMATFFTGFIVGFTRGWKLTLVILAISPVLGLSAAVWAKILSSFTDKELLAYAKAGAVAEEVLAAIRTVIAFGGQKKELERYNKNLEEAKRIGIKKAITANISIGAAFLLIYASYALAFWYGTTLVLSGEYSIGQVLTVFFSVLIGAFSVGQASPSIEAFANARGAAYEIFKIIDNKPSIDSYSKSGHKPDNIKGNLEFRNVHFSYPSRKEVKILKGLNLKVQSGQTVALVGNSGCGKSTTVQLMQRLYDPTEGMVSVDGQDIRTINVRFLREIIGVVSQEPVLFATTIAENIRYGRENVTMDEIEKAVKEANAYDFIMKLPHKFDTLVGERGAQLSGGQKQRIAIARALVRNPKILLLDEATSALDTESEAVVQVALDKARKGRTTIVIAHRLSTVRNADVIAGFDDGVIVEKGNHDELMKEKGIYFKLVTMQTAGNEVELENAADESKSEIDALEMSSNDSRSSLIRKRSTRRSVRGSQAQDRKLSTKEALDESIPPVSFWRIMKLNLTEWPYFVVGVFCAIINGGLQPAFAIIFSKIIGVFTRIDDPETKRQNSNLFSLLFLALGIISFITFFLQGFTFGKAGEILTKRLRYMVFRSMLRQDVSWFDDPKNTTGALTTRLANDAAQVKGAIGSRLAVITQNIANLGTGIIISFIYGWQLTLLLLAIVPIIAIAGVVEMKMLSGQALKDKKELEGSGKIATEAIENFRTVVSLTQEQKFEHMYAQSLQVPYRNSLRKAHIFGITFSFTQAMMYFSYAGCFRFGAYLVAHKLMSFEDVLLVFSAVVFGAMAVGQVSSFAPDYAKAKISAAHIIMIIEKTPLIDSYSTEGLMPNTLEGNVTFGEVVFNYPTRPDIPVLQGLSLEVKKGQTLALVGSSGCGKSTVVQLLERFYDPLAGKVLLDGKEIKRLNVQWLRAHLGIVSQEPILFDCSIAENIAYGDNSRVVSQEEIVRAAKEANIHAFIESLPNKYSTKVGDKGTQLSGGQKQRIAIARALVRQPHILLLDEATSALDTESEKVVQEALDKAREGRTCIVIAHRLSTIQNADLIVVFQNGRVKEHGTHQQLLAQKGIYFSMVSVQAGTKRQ

In the case of `Nc1ccccc1NC(=O)c1ccc(CNC(=O)OCc2cccnc2)cc1` [MS-275], the “clinical responses using classical criteria” value (AML / acute leukemias; phase I study, 38 adults with advanced acute leukemias) is listed as “no clinical responses”.

For `CCCC(CCC)C(=O)O` [valproic acid], the response rate (AML / acute leukemias; frail or elderly patients with AML, valproic acid alone or in combination with all-trans retinoic acid) is listed as 5%.

In the case of `O=C(CCCCCCC(=O)Nc1ccccc1)NO` [vorinostat, suberoylanilide hydroxamic acid], the Cmax ([1]; DL2, average) is reported as 165.2 ± 64.1 ng/mL, the Cl/F ([1]; Geometric mean, N 20) is reported as 277 L and the Vd/F ([1]; Geometric mean, N 20) is reported as 829 L/h. The Cl/F ([1]; Mean, N 20, serum, first 200 mg oral dose day 1) was 300 L, the Cmax ([1]; Mean, N 21, serum, first 200 mg oral dose day 1) was 185 ng/mL and the Cl/F ([1]; Median, N 20) was 265 L. It also gave a Vd/F ([1]; Median, N 20) of 689 L/h, a t1/2 ([1]; Median, N 20) of 1.7 h and an AUC(0-t) ([1]; human, serum, oral, 200 mg, Geometric mean, N 21) of 591 ng·h/mL. The AUC(0-t) [1, 8] was 623 ng·h/mL, the AUC(0-inf) ([1]; human, serum, oral, 200 mg, Geometric mean, N 20) was 722 ng·h/mL and the AUC(0-inf) ([1]; human, serum, oral, 200 mg, Median, N 20) was 757 ng·h/mL. The Cmax ([1]; human, serum, oral, 200 mg, Cmax, 65 years or older age group, average) was 203 ± 101 ng/mL, the Cmax ([1]; human, serum, oral, 200 mg, Cmax, DL1, average) was 197 ± 90.4 ng/mL and the Cmax ([1]; human, serum, oral, 200 mg, Cmax, less than 65 years of age cohort, average) was 174 ± 174 ng/mL. The Tmax ([1]; human, serum, oral, 200 mg, 65 years or older age group, average) was 1.6 ± 1.1 h, the Tmax ([1]; human, serum, oral, 200 mg, DL2, average) was 3.5 ± 2 h and the Tmax [1, 8] was 2 h. The Tmax ([1]; human, serum, oral, 200 mg, less than 65 years of age cohort, average) was 3.3 ± 3.3 h, the half-life ([1]; human, serum, po, 200 mg) was 2.5 h and the Tmax ([1]; human, serum, po, 200 mg, Mean, N 21, serum, first 200 mg oral dose day 1) was 2.6 h. The “% G0–G1” value (buccal mucosal cells; Mean, N= 17, On vorinostat (days 4 to 7), Pre mean 77.99, P 0.5705) was 79.85%, the “% G2–M” value (buccal mucosal cells; Mean, N= 17, On vorinostat, Pre mean 2.14, P 0.2586) was 3.26% and the “%S” value (buccal mucosal cells; Mean, N= 17, On vorinostat, Pre mean 11.49, P 0.9168) was 11.30%. For the same compound, the “% sub-G0–G1” value (buccal mucosal cells; Mean, N= 17, On vorinostat, Pre mean 11.74, P 0.1942) was 7.79%, the “alteration in any cell-cycle phase upon treatment” value (buccal mucosal cells; pre vs on vorinostat, 17 patients) was “no statistically significant alteration” and the “% G0–G1” value (leukemic blasts; N = 16, On vorinostat (days 4 to 7), Pre mean 83.97, P 0.1519) was 87.60%. The “% G2–M” value (leukemic blasts; N = 16, On vorinostat, Pre mean 3.83, P 0.7556) was 3.55%, the “% sub-G0/G1” value (leukemic blasts; N = 16, On vorinostat, Pre mean 4.29, P 0.0693) was 2.60% and the “%S” value (leukemic blasts; N = 16, On vorinostat, Pre mean 9.22, P 0.2841) was 7.17%. The “Percentage of cells expressing DR5” value (Buccal mucosa cells; Mean, N 4, On vorinostat, Pre mean 26.46, P 0.9316) was 25.98 (4), the “Percentage of cells expressing DR4” value (Buccal mucosa cells; Mean, N 4, On vorinostat, Pre mean 27.90, P 0.5873) was 41.39 (4) and the “DR4 or DR5 expression, pre vs on vorinostat” value (Buccal mucosa cells; limited samples) was “no statistically significant differences”. The “Percentage of cells expressing DcR2” value (Leukemia blast cells; Mean, N 11, On vorinostat, Pre mean 15.83, P 0.5279) was 17.56 (11), the “Percentage of cells expressing DcR1” value (Leukemia blast cells; Mean, N 11, On vorinostat, Pre mean 17.59, P 0.1364) was 25.97 (11) and the “Percentage of cells expressing DR4” value (Leukemia blast cells; Mean, N 14, On vorinostat, Pre mean 12.21, P 0.5498) was 13.82 (14). The “Percentage of cells expressing DR5” value (Leukemia blast cells; Mean, N 14, On vorinostat, Pre mean 14.75, P 0.3617) was 17.68 (14), the “DR4, DR5, DcR1, DcR2 expression, pre vs on vorinostat” value (Leukemia blast cells; two-sample paired t test or Wilcoxon signed-rank test) was “no significant differences” and the “DcR1, % Positive cells” value (HL-60/W [2]; 1 μmol/L vorinostat × 24 hours, untreated HL-60/W 23 ± 2) was 94.3 ±1.7%. For the same compound, the “DR5, % Positive cells” value (HL-60/W [2]; 1 μmol/L vorinostat × 24 hours, untreated HL-60/W 47.3 ± 27) was 84.2 ± 6.5%, the “DR4, % Positive cells” value (HL-60/W [2]; 1 μmol/L vorinostat × 24 hours, untreated HL-60/W 55.8 ±14) was 73.2 ±15% and the “DcR2, % Positive cells” value (HL-60/W [2]; 1 μmol/L vorinostat × 24 hours, untreated HL-60/W 56.2 ± 3) was 96.3 ±1.1%. For the same compound, the “DR4, DR5, DcR1, and DcR2 expression” value (HL-60/W [2]; 24-hour exposure to 1 μmol/L vorinostat, P < 0.02, t test) was “significantly increases”, the “BCRP mRNA expression, on vs pre vorinostat among all patients” value (BCRP [3]) was “no significant alteration” and the “BCRP function, on vs pre vorinostat” value (BCRP [4]) was “no difference in function”. For the same compound, the DLTs ([5]; DL1, 200 mg vorinostat p.o. twice a day) was “No DLTs”, the DLTs ([5]; DL2, 200 mg vorinostat 3 times a day, among 5 dose-escalation-evaluable patients) was 2 and the “patients with MDR1 expression increased in the on treatment samples” value (MDR1; 7 of 8 paired samples, 95% CI, 50%–99%) was 88%. For the same compound, the “MDR1 mRNA expression, on vs pre vorinostat among all patients” value (MDR1; paired t test, 8 paired samples) was “no significant alteration”, the “Pgp Protein, ON (Kolmogorov–Smirnov D value)” value (Pgp (ABCB1)) was 0.05 and 0.07 and 0.08 and the “Pgp function, on vs pre vorinostat” value (Pgp) was “no difference in function”. For the same compound, the “TRAIL death and decoy receptor expression” value (HL-60/W [6]) was “increased DR4 and DR5 expression, but not DcR1 or DcR2 expression”, the “interaction between vorinostat and etoposide” value [7] was “synergy” and the “interaction with anthracyclines and etoposide, in vitro cytotoxicity studies” value [7] was “additively or synergistically”. The “interaction, concomitant administration of cytarabine and vorinostat” value [7] was “antagonism”, the “interaction, sequential administration of vorinostat followed by cytarabine” value [7] was “synergism” and the “concentrations giving significant reduction in the percentage of S-phase cells” value ([7]; within 24 hours after in vitro exposure) was no less than 1 µmol/L. The “BCRP Protein, ON (Kolmogorov–Smirnov D value)” value (BCRP (ABCG2); individual patients' blasts on vorinostat, D < 0.15 = no overexpression) was 0.05 and 0.15 and 0.19 and the “BCRP protein expression following treatment” value (BCRP (ABCG2); patients 17 and 24) was “slight decreases”.
